Assay: xn = mol fraction of the nth substance listed
Settings: Liquid, Vibrating tube method

c1ccsc1 [thiophene] + O=C=O
Settings	mass density [kg/m3]
293.15 K, 101 kPa, x2 = 0	1063.59
303.15 K, 101 kPa, x2 = 0	1051.55
313.06 K, 7053 kPa, x2 = 0.5661	983.33
313.06 K, 8092 kPa, x2 = 0.5661	985.63
313.06 K, 8911 kPa, x2 = 0.5661	987.46
313.06 K, 10009 kPa, x2 = 0.5661	989.71
313.06 K, 11009 kPa, x2 = 0.5661	991.78
313.06 K, 11980 kPa, x2 = 0.5661	993.76
313.06 K, 13003 kPa, x2 = 0.5661	995.81
313.06 K, 13999 kPa, x2 = 0.5661	997.77
313.06 K, 15006 kPa, x2 = 0.5661	999.68
313.06 K, 15996 kPa, x2 = 0.5661	1001.53
313.06 K, 17015 kPa, x2 = 0.5661	1003.44
313.06 K, 17998 kPa, x2 = 0.5661	1005.25
313.06 K, 19007 kPa, x2 = 0.5661	1007.09
313.07 K, 4997 kPa, x2 = 0.199	1030.05
313.07 K, 6011 kPa, x2 = 0.199	1031.17
313.07 K, 7011 kPa, x2 = 0.199	1032.32
313.07 K, 8006 kPa, x2 = 0.199	1033.43
313.07 K, 9032 kPa, x2 = 0.199	1034.56
313.07 K, 10022 kPa, x2 = 0.199	1035.65
313.07 K, 11026 kPa, x2 = 0.199	1036.74
313.07 K, 12001 kPa, x2 = 0.199	1037.83
313.07 K, 13018 kPa, x2 = 0.199	1038.9
313.07 K, 13993 kPa, x2 = 0.199	1039.92
313.07 K, 14989 kPa, x2 = 0.199	1040.95
313.07 K, 16012 kPa, x2 = 0.199	1042.03
313.07 K, 17005 kPa, x2 = 0.199	1043.03
313.07 K, 18003 kPa, x2 = 0.199	1044.05
313.07 K, 19065 kPa, x2 = 0.199	1045.15
313.09 K, 1029 kPa, x2 = 0	1040.96
313.09 K, 1969 kPa, x2 = 0	1041.84
313.09 K, 2970 kPa, x2 = 0	1042.78
313.09 K, 3987 kPa, x2 = 0	1043.71
313.09 K, 5055 kPa, x2 = 0	1044.72
313.09 K, 5952 kPa, x2 = 0	1045.51
313.09 K, 6937 kPa, x2 = 0	1046.43
313.09 K, 8032 kPa, x2 = 0	1047.39
313.09 K, 9218 kPa, x2 = 0	1048.44
313.09 K, 10045 kPa, x2 = 0	1049.18
313.09 K, 11012 kPa, x2 = 0	1050.03
313.09 K, 12014 kPa, x2 = 0	1050.9
313.09 K, 12995 kPa, x2 = 0	1051.74
313.09 K, 13961 kPa, x2 = 0	1052.59
313.09 K, 14970 kPa, x2 = 0	1053.43
313.09 K, 15953 kPa, x2 = 0	1054.26
313.09 K, 17004 kPa, x2 = 0	1055.16
313.09 K, 18003 kPa, x2 = 0	1055.95
313.09 K, 18904 kPa, x2 = 0	1056.76
313.13 K, 9091 kPa, x2 = 0.9217	798.81
313.13 K, 10071 kPa, x2 = 0.9217	813.05
313.13 K, 11026 kPa, x2 = 0.9217	824.67
313.13 K, 12059 kPa, x2 = 0.9217	836.13
313.13 K, 13037 kPa, x2 = 0.9217	845.52
313.13 K, 14012 kPa, x2 = 0.9217	854.21
313.13 K, 15001 kPa, x2 = 0.9217	862.38
313.13 K, 16014 kPa, x2 = 0.9217	870.06
313.13 K, 17035 kPa, x2 = 0.9217	877.41
313.13 K, 18056 kPa, x2 = 0.9217	884.26
313.13 K, 19024 kPa, x2 = 0.9217	890.25
313.13 K, 19849 kPa, x2 = 0.9217	895.22
313.13 K, 20858 kPa, x2 = 0.9217	901.01
313.13 K, 21968 kPa, x2 = 0.9217	907.04
313.13 K, 23020 kPa, x2 = 0.9217	912.42
313.13 K, 24013 kPa, x2 = 0.9217	917.38
313.13 K, 25004 kPa, x2 = 0.9217	921.98
313.14 K, 5783 kPa, x2 = 0.3818	1008.02
313.14 K, 6953 kPa, x2 = 0.3818	1010.44
313.14 K, 7991 kPa, x2 = 0.6996	974.06
313.14 K, 8014 kPa, x2 = 0.3818	1012.13
313.14 K, 9021 kPa, x2 = 0.3818	1013.7
313.14 K, 9112 kPa, x2 = 0.6996	977.19
313.14 K, 9872 kPa, x2 = 0.6996	979.01
313.14 K, 9948 kPa, x2 = 0.3818	1015.07
313.14 K, 10945 kPa, x2 = 0.3818	1016.6
313.14 K, 10946 kPa, x2 = 0.6996	981.56
313.14 K, 11951 kPa, x2 = 0.6996	983.92
313.14 K, 12015 kPa, x2 = 0.3818	1018.22
313.14 K, 13025 kPa, x2 = 0.3818	1019.65
313.14 K, 13033 kPa, x2 = 0.6996	986.45
313.14 K, 13973 kPa, x2 = 0.3818	1021.04
313.14 K, 13991 kPa, x2 = 0.6996	988.63
313.14 K, 14931 kPa, x2 = 0.6996	990.71
313.14 K, 15006 kPa, x2 = 0.3818	1022.52
313.14 K, 15988 kPa, x2 = 0.6996	993.02
313.14 K, 15992 kPa, x2 = 0.3818	1023.89
313.14 K, 16994 kPa, x2 = 0.6996	995.2
313.14 K, 17012 kPa, x2 = 0.3818	1025.32
313.14 K, 18022 kPa, x2 = 0.6996	997.41
313.14 K, 18039 kPa, x2 = 0.3818	1026.72
313.14 K, 18908 kPa, x2 = 0.3818	1027.86
313.15 K, 101 kPa, x2 = 0	1039.32
322.95 K, 5076 kPa, x2 = 0.199	1016.5
322.95 K, 6015 kPa, x2 = 0.199	1017.63
322.95 K, 7042 kPa, x2 = 0.199	1018.88
322.95 K, 8054 kPa, x2 = 0.199	1020.1
322.95 K, 9012 kPa, x2 = 0.199	1021.25
322.95 K, 9975 kPa, x2 = 0.199	1022.38
322.95 K, 11019 kPa, x2 = 0.199	1023.61
322.95 K, 12001 kPa, x2 = 0.199	1024.72
322.95 K, 12978 kPa, x2 = 0.199	1025.86
322.95 K, 14026 kPa, x2 = 0.199	1027.05
322.95 K, 15010 kPa, x2 = 0.199	1028.15
322.95 K, 16019 kPa, x2 = 0.199	1029.28
322.95 K, 17005 kPa, x2 = 0.199	1030.36
322.95 K, 18005 kPa, x2 = 0.199	1031.46

Reference: the NIST ThermoML archive (doi:10.1016/j.fluid.2005.07.017)
